This is an account of results in the METLIN SMRT retention time set (Domingo-Almenara et al. 2019).

The nature of the data set: gradient 5% acetonitrile 3 min, to 50% in 2 min, to 85% in 15 min, held 3 min, 100 µL/min. Particulars: column: Zorbax Extend-C18 2.1 x 50 mm; eluents: water / acetonitrile, 0.1% formic acid. The method in brief:
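Data were gathered over 3 months by HPLC coupled to a quadrupole time-of-flight mass spectrometer, operated in positive and negative ionization mode. Mixtures of ~100 pure standards ran on a Zorbax Extend-C18 column (2.1 × 50 mm, 1.8 μm) at 100 μL/min, with water and acetonitrile each containing 0.1% formic acid and dead and dwell volumes of 40 μL and 900 μL. Retention time was read from adduct peaks picked by computer and checked manually.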
The compound `CCCCCNC(=O)c1ccc2c(c1)CCCN2S(C)(=O)=O` had an RP-LC retention time of 846 s.
The value for `COc1ccc(CNC(=O)Cn2c(N3CCOCC3)nc(C)cc2=O)cc1` was 629 s; that for `Cc1ccc(CNc2nc(-c3nnc(-c4ccccc4)o3)nc3ccccc23)o1` was 991 s; that for `COc1cc2oc(=O)c(CC(=O)N3CCN(c4ccccn4)CC3)c(C)c2cc1OC` was 588 s.
`Cc1cc(Cl)ccc1S(=O)(=O)N1CCn2c(nnc2C2CCN(C(C)C)C2)C1` (centres undefined) returned an RP-LC retention time of 629 s.
Under `O=C(NCc1cccc2ccccc12)NCc1nnnn1-c1ccccc1` stands 751 s; under `CCCCn1c(=O)c2ccccc2n(Cc2nc(-c3cc(OC)c(OC)c(OC)c3)no2)c1=O`, 1080 s.
The value for `CC(=O)Nc1nsc(N2CCC(C(=O)N3CCN(c4cccc(C)c4C)CC3)CC2)n1` was 806 s; that for `COc1ccc(N2C(=O)CC(N3CCC(C)CC3)C2=O)cc1` (centres undefined) was 579 s; that for `CCN1C(=O)CCc2cc(NC(=O)Cc3ccccc3Cl)ccc21` was 795 s.
Under `Cn1cc(C(=O)Nc2ccc3c(c2)CCC3)c(S(=O)(=O)N2CCCCC2)n1` stands 1090 s; under `O=C(c1ccc(F)c(F)c1)N1CCc2nc(-c3ccc(Cl)cc3)ncc2C1`, 1020 s.
In the case of `CC(C)NC(=O)N1CC(Oc2cccc(-c3nc(-c4ccccc4)no3)c2)C1`, the RP-LC retention time was 1010 s.
`O=C(c1csc(N2CCN(c3ccccc3)CC2)n1)N1CCCCC1`: the RP-LC retention time came out at 1020 s.
Compound `COc1ccc(NC(=O)C2(C)Oc3cccnc3NC2=O)cc1OC` (centres undefined) gave an RP-LC retention time of 651 s.
In the case of `O=C(CN1C(=O)NC2(CCCCC2)C1=O)Nc1ccc2c(c1)CCC2`, the RP-LC retention time turned out to be 846 s.
Under `CCCNC(=O)Nc1ccc(NC(=O)N2CCCC(C(=O)NC3CCCCC3)C2)cc1` (centres undefined) stands 702 s.
As to `O=C(COc1ccc(Cl)cc1)N1CCC(c2nnc(-c3ccc(F)cc3)o2)CC1`, the RP-LC retention time was determined as 831 s.
The value for `O=C(NCc1ccc(F)c(Cl)c1)c1ccc2ncnc(N3CCCC3)c2c1` was 670 s; that for `CCc1cc(=O)n(CC(=O)Nc2ccc(Cl)cc2)c(N)n1` was 618 s.
`CCOC(=O)c1[nH]c(C)c(CCC(=O)NC(C)C(=O)N2CCCCC2)c1C` (centres undefined): the RP-LC retention time stood at 570 s.
The compound `CSc1ccc(CNC(=O)C2CCN(c3cnc4nccnc4c3)CC2)cc1` yielded an RP-LC retention time of 702 s.
With `CCN(C(=O)Cn1c(CNC(=O)c2ccco2)nc2ccccc21)c1ccccc1`, the RP-LC retention time was 687 s.
Under `COc1ccc(C(O)Cn2ccn3nc(-c4ccc(C)c(C)c4)cc3c2=O)cc1OC` (centres undefined) stands 881 s; under `CCNC(=O)N1CCCCCC1CN1CCCC1` (centres undefined), 564 s; under `CCCn1cc(CCNC(=O)c2ccc(F)cc2)c2cccnc21`, 732 s.
Under `Cc1ccc(S(=O)(=O)CC(=O)Nc2nc(-c3ccc4c(c3)OCO4)cs2)cc1` stands 924 s; under `CCCNC(=O)C1Cc2cc(S(=O)(=O)N3CCCCC3)ccc2N1C(=O)CC` (centres undefined), 800 s.
Consider `Cc1ccccc1Cc1noc(-c2nc(-c3ccc4c(c3)OCO4)no2)n1`, for which the RP-LC retention time was 1190 s.
The value for `Cc1cccc(N(C)C(=O)Cn2c(N3CCc4ccccc4C3)nc(C)cc2=O)c1` was 850 s; that for `Cn1c(CNC(=O)C2CCC2)nc2c1CN(C(=O)Cc1ccc(Cl)cc1)CC2` was 623 s; that for `COc1ccc(C2(C(=O)N3CCCC(c4nc(C5CCOCC5)no4)C3)CC2)cc1` (centres undefined) was 822 s.
Under `COCC(=O)Nc1ccc2nc(N3CCN(Cc4ccccc4OC)CC3)cc(C(=O)O)c2c1` stands 573 s; under `O=S(=O)(Cc1noc(-c2ccc(F)cc2F)n1)c1ccc(Cl)cc1`, 1160 s.
Under `Cc1ccc2[nH]c(C(=O)NC3CCN(C)CC3)cc2c1` stands 845 s; under `CCCN1C(=O)COc2ccc(-c3noc(-c4cccc5[nH]ccc45)n3)cc21`, 1070 s; under `Cc1ccc(S(=O)(=O)N2CCC(n3cnc4c(C)cccc4c3=O)CC2)cc1C`, 1050 s.
Turning to `O=C(c1nnc(-c2ccc(S(=O)(=O)N3CCCC3)cc2)o1)N1CCC(Cc2ccccc2)CC1`, the RP-LC retention time was 1130 s.
Under `Cc1cc(N(C)C)n2ncc(-c3ccc(Cl)cc3)c2n1` stands 889 s; under `CO[C@H]1C(=O)N(C(C)C)[C@H]1C1CCN(C(=O)Cn2ccnc2)CC1`, 562 s.
The value for `O=C(c1ccc2c(c1)N(Cc1ccccc1)CCS2)N1CCN(c2ccccn2)CC1` was 698 s.
The value for `CCc1ccc(C(=O)N2CCC3(C2)C(=O)Nc2ccccc23)cc1` (centres undefined) was 769 s; that for `Cc1ccc(Nc2c(-c3ccc(N(C)C)cc3)nc3ncccn23)cc1Cl` was 805 s.
Compound `Cn1c(C(=O)NCc2cccc(F)c2)cc2ccncc21` had an RP-LC retention time of 609 s.
As for `CN(C)S(=O)(=O)c1cccc(-c2nnc(-c3ccccc3Cl)o2)c1`, the RP-LC retention time turned out to be 941 s.
As to `Cc1ccc([N+](=O)[O-])cc1S(=O)(=O)N1CCN(c2cccc(Cl)c2)CC1`, the RP-LC retention time came out at 618 s.
On to `O=C(O)c1cnc(N2CCOCC2)nc1-c1cccnc1`, for which the RP-LC retention time is 569 s.
For `CN(CCc1noc(-c2ccc(Cl)cc2)n1)C(=O)COc1ccc(F)cc1`, the RP-LC retention time amounted to 993 s.
Compound `O=C(NC1CCCN(c2cc(N3CCCC3)ncn2)C1)c1ccccn1` (centres undefined) yielded an RP-LC retention time of 606 s.
Under `O=C(NCc1ccccc1C(F)(F)F)C1CCCN(c2ncnc3nn(-c4ccc(F)cc4)cc23)C1` (centres undefined) stands 754 s; under `CCSc1nnc(-c2nn(C)c3c2CN(S(=O)(=O)Cc2ccccc2Cl)CC3)n1CC`, 960 s; under `Brc1ccc(-c2csc(Cc3nc(-c4ccc5c(c4)OCO5)no3)n2)cc1`, 1300 s.
As to `Cn1c(=O)n(CCN2CCOCC2)c(=O)c2c1nc1n2CCCN1c1ccc(Cl)cc1`, the RP-LC retention time turned out to be 643 s.
With `Cc1ccc(C)c(-n2ccn(Cc3nc(-c4ccc(C(C)(C)C)cc4)no3)c(=O)c2=O)c1`, the RP-LC retention time came out at 1130 s.
Under `Cc1ccc(-c2ccc(N3CCCC(C(=O)NCCc4cccs4)C3)nn2)cc1C` (centres undefined) stands 808 s; under `COc1cccc(-n2cc(C(=O)O)nn2)c1`, 682 s; under `COc1ccc(-c2noc(-c3nc(-c4ccccc4F)no3)n2)cc1OC`, 1110 s.
The value for `CCc1nc(N2CCC(C(=O)NCc3ccccc3C(F)(F)F)CC2)c2c(C)scc2n1` was 754 s; that for `O=C(c1cc(-c2ccco2)[nH]n1)N1CCN(c2ncccn2)CC1` was 640 s.
The value for `Cc1ccc(S(=O)(=O)N2C[C@H](c3nc(-c4cccnc4)no3)[C@@H](C)C2)cc1` was 939 s.
`CN(CCCNC(=O)C1CCCN(c2ccc(N3CCOCC3)nn2)C1)c1ccccc1` (centres undefined) yielded an RP-LC retention time of 570 s.
The value for `CCn1cc(C2=CCN(C(=O)NCc3ccc(OC)cc3)CC2)c2cccnc21` was 858 s; that for `CC(C)N1CCN(Cc2ccc(C(=O)NC3CC3)cc2)C(=O)C1=O` was 604 s; that for `COc1cnc(SC)nc1Nc1ccc(C#N)cc1` was 853 s.
`CCN(CC)C(=O)c1ccc2c(c1)N(CC(=O)N1CCN(c3ncccn3)CC1)C(=O)CO2` came in with an RP-LC retention time of 666 s.
The compound `Cc1ccc(NC(=O)NCC(c2cccnc2)c2c[nH]c3ccccc23)c(C)c1` (centres undefined) registered an RP-LC retention time of 683 s.
As for `O=C(CSc1ccc(N2CCN(c3ccc(F)cc3)CC2)nn1)NCc1ccco1`, the RP-LC retention time is 873 s.
On to `CCOC(=O)c1sc(NC(=O)CC(C)C)nc1-c1ccccc1`, for which the RP-LC retention time was determined as 1050 s.
Under `Cc1ccc(CNC(=O)C2CCN(S(=O)(=O)c3ccc4c(c3)NC(=O)CO4)CC2)cc1` stands 794 s.
With `CN1CCN(C2CCN(C(=O)Nc3cc(Oc4ccc(NC(=O)C5(C(=O)Nc6ccc(F)cc6)CC5)c(F)c4)ccn3)CC2)CC1`, the RP-LC retention time was 659 s.
Under `Cc1c(Cl)cccc1NC(=O)C1CCN(S(=O)(=O)c2ccc3c(c2)NC(=O)CO3)CC1` stands 778 s.
The value for `O=C(Cc1csc2nc(-c3ccccc3)cn12)Nc1cccc(F)c1` was 805 s; that for `CC(C)c1ccc(-c2csc(Nc3ccc(S(N)(=O)=O)cc3)n2)cc1` was 1010 s; that for `CCOc1ccc(N2CCn3c2nn(CC(=O)c2ccc(OC)cc2)c(=O)c3=O)cc1` was 773 s.
Under `COc1cc(NC(=O)N2CC(C)Oc3ccccc32)cc(OC)c1OC` (centres undefined) stands 862 s; under `COc1ccc(OC)c(CNC(=O)CN2CCN(Cc3ccc(F)cc3)C2=O)c1`, 787 s.
Regarding `Cc1ccc(NC(=O)C2CCCN2S(=O)(=O)c2cc3c(cc2Cl)NC(=O)CO3)cc1F` (centres undefined), the RP-LC retention time is 844 s.
On to `CN(C)c1nc2cc(C(=O)N3CCC4(CC3)OCCO4)sc2n1-c1ccc(F)cc1`, for which the RP-LC retention time is 654 s.
Under `Cc1ccc2c(c1)c(C)c(C)n2CC(O)Cn1nc(C)cc1C` (centres undefined) stands 933 s.
